Patent US12186312B2, “Sleep improving agent” (Amino Up Co., Ltd., priority 2016, dated 2025)

How the values were obtained:
[1] = system: HSP70 mRNA expression in human promyelocytic leukemia cells (HL-60 cells); assay: Evaluation of HSP70 mRNA expression-inducing activity in HL-60 cells; assay type: cell-based; conditions: for concentration at which HSP70 mRNA expression inducing ability was increased up to 150% relative to the control: 4 hours at 37° C., corrected with beta 2 microglobulin gene; for HSP70 mRNA expression as compared with the control: 4 hours, FIGS. 1-3, percentages for the control
Protocol: The HSP70 expression-inducing activity by Compounds 1-3 was evaluated by measuring a HSP70 mRNA expression level.
Human promyelocytic leukemia cells (HL-60 cells) was suspended in RPMI 1640 medium supplemented with 10% fetal bovine serum, and was transferred into a 1.5 mL tube (45,000 cells/0.9 mL). To the tube was added 0.1 mL of each sample that had been prepared in a 1% DMSO solution and the tube was allowed to stand at 37° C. for 4 hours. To a control was added 0.1 mL of 1% DMSO solution. After cultured for 4 hours, the cells was centrifuged by a small refrigerated centrifuge (1,000 g×5 minutes) to precipitate the HL-60 cells. After removal of the supernatant, the cells were lysed in 0.25 mL Trizol (manufactured by Thermo Fisher Scientific) and then total RNA was extracted according to the protocol. The RNA was dissolved in RNase-free water, and the concentration of the RNA (wave length 260 nm) was measured by using a microvolume spectrophotometer NanoDrop 2000/2000c (manufactured by Thermo Fisher Scientific). The RNA solution was diluted with RNase-free water so as to have a concentration of 50 ng/mL, and then cDNA was synthesized by using ReverTra Ace® qPCR RT Kit (manufactured by TOYOBO). The reaction liquid (10 μl) after the reverse transcription was diluted with RNase-free water so as to be 100 μL, and then used as a template for PCR. Beta 2 microglobulin gene was used as an internal control gene for correction of the HSP70 gene expression. The primer sequences of genes used for the PCR reaction are as follows.
The expression was analyzed by using CFX Connect Real-Time PCR Detection System (manufactured by Bio-rad). 10 μL of the PCR reaction liquid was incubated at 95° C. for 3 minutes (initial denaturation), followed by repetition of 55 cycles comprising denaturation at 95° C. for 10 seconds, and annealing and extension at 57.8° C. for 30 seconds. Finally, the melting curve was measured every 0.2° C. in the range from 65° C. to 95° C. Expression levels of HSP70 gene and internal standard gene were analyzed using Bio-Rad CFX Manager 3.1.

[2] = system: male Wistar rats; assay: Light period activity level after 8-hour phase advance (model of mild sleep disorder), dietary administration; assay type: in vivo, rat; conditions: for activity level of Day 1 and Day 2 during the light period compared with the Control group: Dunnett test with mixed model for repeated measures; for activity level on Day 1, light period (12 hours) after the phase advance compared with the Control group: Dunnett test
Excerpt: Firstly, 7-week old male Wistar rats were implanted intraperitoneally with a small activity meter (NanoTag®, Kissei Comtech Co., Ltd.). Subsequently, after a week of recovery period, the rats were divided into four groups (Control group, Compound A-1 group, Compound A-2 group, and Compound A-3 group; n=17 each) shown in Table 1 by stratified randomization assignment using body weight as an index, and test diets were dietary administered to them. At the 15th day from the start of dietary administration, the light/dark cycle was advanced by 8 hours, and after that, dietary administration of test diets was continued for 2 weeks. The light/dark cycle of the breeding environment excluding the phase advance date was set to 12 hours cycle, and the illuminance of the light period was set to be approximately 200 1× (185-230 1×). In this model of mild sleep disorder with the phase advance, the influence of test feed administration on the light period activity level after the phase advance was examined.
The test was carried out by a two-sided test, the significance level of the test was set to 5%, and the trend difference was 10% on both sides. For the analysis, SAS software release 9.3 (manufactured by SAS Institute Japan Ltd.) was used.

## O=C1N[C@@H](Cc2ccccc2)C(=O)N2CCC[C@@H]12 [Compound 2, (3S,8aS)-3-benzylhexahydropyrrolo[1,2-a]pyrazine-1,4-dione]
[1]
  concentration at which HSP70 mRNA expression inducing ability was increased up to 150% relative to the control: 0.045 mg/mL
  HSP70 mRNA expression as compared with the control: enhanced mRNA expression of HSP70 gene

## O=C1N[C@@H](Cc2ccc(O)cc2)C(=O)N2CCC[C@@H]12 [Compound 3, (3S,8aS)-3-(4-hydroxybenzyl)hexahydropyrrolo[1,2-a]pyrazine-1,4-dione]
[1]
  concentration at which HSP70 mRNA expression inducing ability was increased up to 150% relative to the control: 0.101 mg/mL
  HSP70 mRNA expression as compared with the control: enhanced mRNA expression of HSP70 gene

## CC(C)C[C@@H]1NC(=O)[C@@H]2CCCN2C1=O [Compound 1, (3S,8aS)-3-isobutylhexahydropyrrolo[1,2-a]pyrazine-1,4-dione]
[1]
  concentration at which HSP70 mRNA expression inducing ability was increased up to 150% relative to the control: 0.083 mg/mL
  HSP70 mRNA expression as compared with the control: enhanced mRNA expression of HSP70 gene
[2]; Compound A-2 group: MF containing 0.005% of Compound A (6.25 mg/kg BW/day), P=0.0481
  activity level of Day 1 and Day 2 during the light period compared with the Control group: significantly inhibited the activity level
[2]; Compound A-2 group: MF containing 0.005% of Compound A (6.25 mg/kg BW/day), P=0.016
  activity level on Day 1, light period (12 hours) after the phase advance compared with the Control group: significantly suppressed the activity level
[2]; Compound A-3 group: MF containing 0.05% of Compound A (62.46 mg/kg BW/day), P=0.0978
  activity level of Day 1 and Day 2 during the light period compared with the Control group: tendency to suppress the activity level
[2]; Compound A-3 group: MF containing 0.05% of Compound A (62.46 mg/kg BW/day), P=0.0536
  activity level on Day 1, light period (12 hours) after the phase advance compared with the Control group: tended to suppress the activity level
